Data as given in PMC4159583, “Evaluation of the Interaction between Phosphohistidine Analogues and Phosphotyrosine Binding Domains” (Chembiochem, 2014).
Read-outs that look alike come from different tables or passages of the source. Values belong to the compound of their own block, whether it stands above or below them. *1 amine or outer side, *2 acyl side, *3 side chain or, on linkers, in order; H or OH if unused. Where a SMILES comes first, the peptide text is derived from it. [ ]: non-standard residue; d: D form. The star is where a group is joined. X2 = O=C(O)c1cc(NC(=S)*)ccc1-c1c2ccc(=O)cc-2oc2cc(O)ccc12; X1 = O=C([C@H](Cn1cc(P(=O)(O)O)nn1)N[*:1])[*:2]; pY = N[C@@H](Cc1ccc(OP(=O)(O)O)cc1)C(=O)O; phTz = not defined here; GABA = NCCCC(=O)O

What was measured:
[1] = pKa determination by 31P NMR pH titration; assay type: physicochemical
Procedure: NMR data were collected using a Bruker DPX300 and analysed using MestReNova software. Experiments were carried out 121 MHz using peptide S1 or S2 at a concentration of 10 mM in 10% D2O in H2O (v/v, 2 mL) with an external standard of tris-carboxyethyl phosphine (TCEP) in H2O with a δ value set at 16.30 ppm.5 The pH of the solution was measured and adjusted by addition of 100 mM NaOH in 10% D2O in H2O (v/v) in portions of 5 µL. At higher pH values significant signal-broadening was observed, which precluded accurate determination of chemical shifts and such results were not included in calculations to determine pKa’s. The pKa was determined by fitting the observed chemical shift data to a Boltzmann distribution yielding pKas of ~5.8 for pTyr and 5.95 for the phosphotriazole analogue.
Equation )/(1 + exp((x-x0)
)/(1 + exp((x-x0) Chi-Sqr
Reduced Chi-S 0.00117 Value Standard Error
Figure S10. pH titrations of peptides S1 and S2 containing phosphotyrosine (S1, left) and phosphonotriazole (S2, right) 5Determined by a preliminary experiment using TCEP with an external standard of phosphoric acid (with a shift assigned as 0.00 ppm).
(also on this page, place not known: DPX3 00 software . usin g D 2O H 2O ppm. ad justed H 2O ( v/v) 5 signal-broa dening includ ed 31 P Chemical /ppm 0.01607 0.4 31 P Chemical shift /ppm shift)

[2] = biological target: T1, full-length Grb2 purified as a glutathione S-transferase (GST) fusion (GST-Grb2) (Homo sapiens, UniProt P62993); assay: ITC of peptides into full-length GST-Grb2; assay type: binding
T1 construct: made in house; host or cells: E. coli BL21-Gold (DE3)
From the text: Protein expression and purification
Isothermal Titration Calorimetry (ITC)

His6-(Grb2-SH2) [3] = biological target: T2, His6-(Grb2-SH2) (Homo sapiens, UniProt P62993); assay: Competition fluorescence anisotropy/polarisation assay (displacement of 17); assay type: binding; conditions: for competition / displacement of 17: 200 nM 17 and 175 nM Grb2-SH2, serial dilutions of peptide, pH 7.4
T2 construct: His6-(Grb2-SH2), 13132 Da; made in house
Procedure: (§1) Fluorescence polarization experiments
(§2) Peptides were prepared as described above. Fluorescence polarization assays were carried out in 96 well plates (160 µL per well). All experiments were performed in 50 mM Tris.HCl, 100 mM NaCl pH 7.4 (ITC buffer). 2.5-fold or 3-fold dilution series of each peptide were routinely prepared before mixing in the plate well before data acquisition using a Perkin Elmer EnVision™ 2103 MultiLabel plate reader
(§3) Determination of binding of FITC-pY peptide 17 to Grb2-SH2 domain
(§4) Grb2-SH2 was serially diluted through ITC buffer containing 100 nM peptide 17 in triplicate and the fluorescence measured in parallel and perpendicular channels. The instrumental G factor for each experiment was approximated by assuming the anisotropy r = 0 for the free peptide. For each data point the total intensity I and anisotropy r were then determined by application of equations 3 and 4 below. Data were fit using a logistic model to obtain limiting maximum and minimum values […]
(§5) upon binding of the protein and the fraction bound was therefore calculated using equation 5 where λ = Ibound/Ifree. The fraction […]
(§6) IT = Iparallel+ 2GI perpendicular (3) r = Iparallel− GI perpendicular (4)
(§7) F = r − rmin where R = Ibound (5) […]
Competition binding assay […]
fitting using a logistic model to obtain an IC50 value.

Grb2 SH2 domain [4] = conditions: cited from earlier work
From the text: We envisaged producing suitable peptides by Fmoc-SPPS and investigating the interaction with proteins known to bind to phosphotyrosine. Our initial test system was the prototypical SH2 phosphotyrosine binding domain from Grb2.[19] […] A)15% SDS-PAGE: Lane 1 - MW markers, 2 & 3 –flow through Ni-NTA column of soluble fraction, 4 & 5 – elution of soluble fraction from Ni-NTA column, 6 – MW markers, 7 – insoluble fraction. B) 15% SDS-PAGE: Lane 1 - MW markers, 2 - insoluble fraction ...

[5] = biological target: T3, monomeric His6-(Grb2-SH2), Grb2 SH2 domain (Homo sapiens, UniProt P62993); assay: ITC of peptides into monomeric His6-(Grb2-SH2) (late-eluting SEC peak 2); assay type: binding; conditions: for ITC outcome, standard conditions: final ratio of ligand to protein 2:1
T3 construct: His6-(Grb2-SH2), 13132 Da; made in house
T3 sequence (P62993 with tags, fused parts or gaps): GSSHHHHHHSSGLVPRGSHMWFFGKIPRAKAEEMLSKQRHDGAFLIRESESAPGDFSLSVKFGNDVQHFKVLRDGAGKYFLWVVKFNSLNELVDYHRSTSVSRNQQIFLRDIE
From the text: (3 pictures or pasted objects on this page, not shown here)
(5 pictures or pasted objects on this page, not shown here)

His6-(Grb2-SH2) [6] = biological target: T2, His6-(Grb2-SH2); assay: Fluorescence anisotropy direct binding of FITC-pY peptide 17; conditions: 100 nM peptide 17, Grb2-SH2 serially diluted, triplicate; 50 mM Tris.HCl, 100 mM NaCl pH 7.4; fraction bound corrected for quenching; read-out: binding constant (Kd) by fluorescence anisotropy
Procedure: as §1, §2, §3, §4, §5, §6, §7
Competition binding assay
Grb2-SH2. […]

Grb2 SH2 domain [7] = assay: Literature affinities for Grb2-SH2; assay type: binding; conditions: cited tripeptide Kd compared with own Kd of 11

Compound: C[C@H](NC(=O)CNC(=O)[C@H](C)NC(=O)CNC(=O)[C@H](Cc1ccc(OP(=O)(O)O)cc1)NC(=O)CNC(=O)[C@H](C)NC(=O)CNC(=O)[C@H](C)NC(=O)CNC(=O)[C@@H](N)CS)C(=O)NCC(=O)O [S1, H-Cys-Gly-Ala-Gly-Ala-Gly pTyr-Gly-Ala-Gly-Ala-Gly-OH] (H-CGAGAG[pY]GAGAG-OH)
pKa ([1]; 31P NMR 121 MHz, peptide 10 mM in 10% D2O in H2O, titrated with 100 mM NaOH, Boltzmann fit of chemical shift): ~ 5.8

Compound: N[C@@H](Cc1ccc(OP(=O)(O)O)cc1)C(=O)O [compound 4, phosphotyrosine]
pKa ([1]; NMR titrations (of peptides containing the residue), phosphoryl group): 5.8

Compound: CC(=O)N[C@@H](CO)C(=O)N[C@@H](Cc1ccc(OP(=O)(O)O)cc1)C(=O)N[C@H](C(=O)N[C@@H](CC(N)=O)C(=O)N[C@H](C(=O)N[C@@H](CCC(N)=O)C(N)=O)C(C)C)C(C)C [compound 11, AcHN-Ser-pTyr-Val-Asn-Val-Gln-NH2, reference compound] (Ac-S[pY]VNVQ-NH2)
Kd [2]: 196 ± 21 nM | IC50 (His6-(Grb2-SH2) [3]): 442 ± 80 nM | competition / displacement of 17 (His6-(Grb2-SH2) [3]): Binding (displacement of 17) was observed | Kd (Grb2 SH2 domain [4]; literature value for Shc-derived hexapeptide, read-out: Kd for Grb2 SH2 domain): 200 nM

Compound: CC(=O)N[C@@H](CO)C(=O)N[C@@H](Cn1cc(P(=O)(O)O)nn1)C(=O)N[C@H](C(=O)N[C@@H](CC(N)=O)C(=O)N[C@H](C(=O)N[C@@H](CCC(N)=O)C(N)=O)C(C)C)C(C)C [compound 16, AcHN-Ser-pTz-Val-Asn-Val-Gln-NH2] (Ac-S[X1]VNVQ-NH2)
ITC outcome, standard conditions [5]: inconclusive | competition / displacement of 17 (His6-(Grb2-SH2) [3]): Binding (displacement of 17) was observed

Compound: CC(C)[C@H](NC(=O)[C@H](CC(N)=O)NC(=O)[C@@H](NC(=O)[C@H](Cc1ccc(OP(=O)(O)O)cc1)NC(=O)[C@H](CO)NC(=O)CCCNC(=S)Nc1ccc(-c2c3ccc(=O)cc-3oc3cc(O)ccc23)c(C(=O)O)c1)C(C)C)C(=O)N[C@@H](CCC(N)=O)C(N)=O [compound 17, FITC-Gaba-Ser-pTyr-Val-Asn-Val-Gln-NH2] ({X2-GABA}-S[pY]VNVQ-NH2)
Kd (His6-(Grb2-SH2) [6]): 283 ± 18 nM

Compound: AcHN-Ser-His-Val-Asn-Val-Gln-NH2 [compound 19]
competition / displacement of 17 (His6-(Grb2-SH2) [3]): No competition

Compound: AcHN-Ser-Tyr-Val-Asn-Val-Gln-NH2 [compound 18]
competition / displacement of 17 (His6-(Grb2-SH2) [3]): No competition

Compound: AcHN-Ser-pSer-Val-Asn-Val-Gln-NH2 [compound 20]
competition / displacement of 17 (His6-(Grb2-SH2) [3]): No competition

Compound: AcHN-Ser-pThr-Val-Asn-Val-Gln-NH2 [compound 21]
competition / displacement of 17 (His6-(Grb2-SH2) [3]): No competition

ITC titration outcome ([2]; ITC, peptide titrated into GST-Grb2, 25 °C, ITC buffer pH 7.4): inconclusive | ITC binding outcome, low c-value ([5]; low c-value conditions, final ratio of ligand to protein 8:1, indistinguishable from titration into buffer): no binding | ITC outcome, standard conditions [5]: inconclusive | competition / displacement of 17 (His6-(Grb2-SH2) [3]): No competition
Compound: AcHN-Ser-phTz-Val-Asn-Val-Gln-NH2 ({Ac-Ser-phTz}-VNVQ-NH2; reading uncertain; also: printed as AcHN-Ser-phTz-Val-Asn-Val-Gln-NH2) [compound 15]

Compound: AcHN-pTyr-Val-Asn-NH2 [literature control tripeptide for Grb2-SH2]
fold lower affinity for monomeric Grb2-SH2 than hexapeptide 11 (Grb2 SH2 domain [7]): ~ 5 fold | Kd (Grb2 SH2 domain [4]; literature control tripeptide, main article, read-out: Kd for monomeric Grb2-SH2): 1600 nM

pKa [1]: 5.95
Compound: H-Cys-Gly-Ala-Gly-Ala-Gly pTz-Gly-Ala-Gly-Ala-Gly-OH [S2]
